Measured values reported in patent US10294202B2, “Pyrrolidinones as herbicides” (FMC Corporation, priority 2013, dated 2019).

How the values were obtained:
Assay in all cases: Test D pre-/postemergence herbicide test
[1] = tested on: pigweed; assay type: in vivo, Amaranthus retroflexus; settings: for Plant response rating: Postemergence, Pigweed, scale 0 to 100; for Plant response rating, Pigweed: Preemergence, scale 0 to 100 (0 no effect, 100 complete control)
Excerpt: (§1) Seeds of plant species selected from bluegrass (annual bluegrass, Poa annua), blackgrass (Alopecurus myosuroides), canarygrass (littleseed canarygrass, Phalaris minor), chickweed (common chickweed, Stellaria media), galium (catchweed bedstraw, Galium aparine), bromegrass, downy (downy bromegrass, Bromus tectorum), field poppy (Papaver rhoeas), field violet (Viola arvensis), foxtail, green (green foxtail, Setaria viridis), deadnettle (henbit deadnettle, Lamium amplexicaule), ryegrass, Italian (Italian ryegrass, Lolium multiflorum), kochia (Kochia scoparia), lambsquarters (Chenopodium album), oilseed rape (Brassica napus), pigweed (Amaranthus retroflexus), chamomile (scentless chamomile, Matricaria inodora), Russian thistle (Salsola kali), speedwell (bird's-eye speedwell, Veronica persica), barley, spring (spring barley, Hordeum vulgare), wheat, spring (spring wheat, Triticum aestivum), buckwheat, wild (wild buckwheat, Polygonum convolvulus), mustard, wild (wild mustard, Sinapis arvensis), oat, wild (wild oat, Avena fatua), radish, wild (wild radish, Raphanus raphanistrum), […]), barley, winter (winter barley, Hordeum vulgare), and wheat, winter (winter wheat, Triticum aestivum) were planted into a silt loam soil and treated preemergence with test chemicals formulated in a non-phytotoxic solvent mixture which included a surfactant. At the same time, these species were planted in pots containing Redi-Earth® planting medium (Scotts Company, 14111 Scottslawn Road, Marysville, Ohio 43041) comprising spaghnum peat moss, vermiculite, wetting agent and starter nutrients and treated with postemergence applications of the test chemicals formulated in the same manner. Plants ranged in height from 2 to 18 cm (1- to 4-leaf stage). Treated plants and controls were maintained in a controlled growth environment for 7 to 21 days after which time all species were compared to controls and visually evaluated. Plant response ratings, summarized in Table D, are based on a scale of 0 to 100 where 0 is no effect and 100 is complete control. A dash (-) response means no test result.

[2] = tested on: barley, winter; assay type: in vivo, Hordeum vulgare; settings: for Plant response rating: Barley, Winter, scale 0 to 100; for Plant response rating, Barley, Winter: scale 0 to 100 (0 no effect, 100 complete control)
Outline: (§2)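 Visual 0–100 ratings (0 = no effect, 100 = complete control) versus controls, made 7 to 21 days after treatment in a controlled growth environment. Test chemicals in surfactant-containing non-phytotoxic solvent were applied preemergence to silt loam-sown seeds and postemergence to plants 2–18 cm tall.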

[3] = tested on: barley, spring; assay type: in vivo, Hordeum vulgare; settings: for Plant response rating: Barley, Spring, scale 0 to 100; for Plant response rating, Barley, Spring: scale 0 to 100 (0 no effect, 100 complete control)
Outline: as §2

[4] = tested on: bluegrass; assay type: in vivo, Poa annua; settings: for Plant response rating: Bluegrass, scale 0 to 100; for Plant response rating, Bluegrass: scale 0 to 100 (0 no effect, 100 complete control)
Outline: as §2

[5] = tested on: wheat, winter; assay type: in vivo, Triticum aestivum; settings: for Plant response rating: Postemergence, Wheat, Winter, scale 0 to 100; for Plant response rating, Wheat, Winter: Preemergence, scale 0 to 100 (0 no effect, 100 complete control)
Excerpt: as §1

[6] = tested on: wheat, spring; assay type: in vivo, Triticum aestivum; settings: for Plant response rating: Postemergence, Wheat, Spring, scale 0 to 100; for Plant response rating, Wheat, Spring: Preemergence, scale 0 to 100 (0 no effect, 100 complete control)
Excerpt: as §1

[7] = tested on: blackgrass; assay type: in vivo, Alopecurus myosuroides; settings: for Plant response rating: Blackgrass, scale 0 to 100; for Plant response rating, Blackgrass: scale 0 to 100 (0 no effect, 100 complete control)
Outline: as §2

O=C1NCC(c2ccc(Cl)c(F)c2)C1C(=O)Nc1cccc(F)c1F (stereo not drawn) [Compound 52]
Plant response rating ([1]; 16 g ai/ha): 0
Plant response rating ([1]; 31 g ai/ha): 0
Plant response rating ([1]; 62 g ai/ha): 0
Plant response rating ([1]; 125 g ai/ha): 30
Plant response rating ([1]; 250 g ai/ha): 40
Plant response rating, Pigweed ([1]; 62 g ai/ha): 10
Plant response rating, Pigweed ([1]; 125 g ai/ha): 10
Plant response rating, Pigweed ([1]; 16 g ai/ha): 0
Plant response rating, Pigweed ([1]; 31 g ai/ha): 10
Plant response rating, Pigweed ([1]; 250 g ai/ha): 15
Plant response rating ([2]; Postemergence, 16 g ai/ha): 0
Plant response rating ([2]; Postemergence, 31 g ai/ha): 0
Plant response rating ([2]; Postemergence, 62 g ai/ha): 0
Plant response rating ([2]; Postemergence, 125 g ai/ha): 0
Plant response rating ([2]; Postemergence, 250 g ai/ha): 0
Plant response rating, Barley, Winter ([2]; Preemergence, 62 g ai/ha): 0
Plant response rating, Barley, Winter ([2]; Preemergence, 16 g ai/ha): 0
Plant response rating, Barley, Winter ([2]; Preemergence, 31 g ai/ha): 0
Plant response rating ([2]; Preemergence, 125 g ai/ha): 0
Plant response rating ([2]; Preemergence, 250 g ai/ha): 25
Plant response rating ([3]; Postemergence, 16 g ai/ha): 0
Plant response rating ([3]; Postemergence, 31 g ai/ha): 0
Plant response rating ([3]; Postemergence, 62 g ai/ha): 0
Plant response rating ([3]; Postemergence, 125 g ai/ha): 0
Plant response rating ([3]; Postemergence, 250 g ai/ha): 0
Plant response rating, Barley, Spring ([3]; Preemergence, 62 g ai/ha): 0
Plant response rating, Barley, Spring ([3]; Preemergence, 16 g ai/ha): 0
Plant response rating, Barley, Spring ([3]; Preemergence, 31 g ai/ha): 0
Plant response rating ([3]; Preemergence, 125 g ai/ha): 0
Plant response rating ([3]; Preemergence, 250 g ai/ha): 5
Plant response rating ([4]; Postemergence, 16 g ai/ha): 0
Plant response rating ([4]; Postemergence, 31 g ai/ha): 0
Plant response rating ([4]; Postemergence, 62 g ai/ha): 0
Plant response rating ([4]; Postemergence, 125 g ai/ha): 0
Plant response rating ([4]; Postemergence, 250 g ai/ha): 0
Plant response rating, Bluegrass ([4]; Preemergence, 62 g ai/ha): 0
Plant response rating, Bluegrass ([4]; Preemergence, 16 g ai/ha): 0
Plant response rating, Bluegrass ([4]; Preemergence, 31 g ai/ha): 0
Plant response rating ([4]; Preemergence, 125 g ai/ha): 0
Plant response rating ([4]; Preemergence, 250 g ai/ha): 20
Plant response rating ([5]; 16 g ai/ha): 0
Plant response rating ([5]; 31 g ai/ha): 0
Plant response rating ([5]; 62 g ai/ha): 0
Plant response rating ([5]; 125 g ai/ha): 0
Plant response rating ([5]; 250 g ai/ha): 0
Plant response rating, Wheat, Winter ([5]; 62 g ai/ha): 0
Plant response rating, Wheat, Winter ([5]; 125 g ai/ha): 0
Plant response rating, Wheat, Winter ([5]; 16 g ai/ha): 0
Plant response rating, Wheat, Winter ([5]; 31 g ai/ha): 0
Plant response rating, Wheat, Winter ([5]; 250 g ai/ha): 10
Plant response rating ([6]; 16 g ai/ha): 0
Plant response rating ([6]; 31 g ai/ha): 0
Plant response rating ([6]; 62 g ai/ha): 0
Plant response rating ([6]; 125 g ai/ha): 0
Plant response rating ([6]; 250 g ai/ha): 0
Plant response rating, Wheat, Spring ([6]; 62 g ai/ha): 0
Plant response rating, Wheat, Spring ([6]; 125 g ai/ha): 0
Plant response rating, Wheat, Spring ([6]; 16 g ai/ha): 0
Plant response rating, Wheat, Spring ([6]; 31 g ai/ha): 0
Plant response rating, Wheat, Spring ([6]; 250 g ai/ha): 0
Plant response rating ([7]; Postemergence, 16 g ai/ha): 0
Plant response rating ([7]; Postemergence, 31 g ai/ha): 0
Plant response rating ([7]; Postemergence, 62 g ai/ha): 0
Plant response rating ([7]; Postemergence, 125 g ai/ha): 0
Plant response rating ([7]; Postemergence, 250 g ai/ha): 0
Plant response rating, Blackgrass ([7]; Preemergence, 62 g ai/ha): 0
Plant response rating, Blackgrass ([7]; Preemergence, 16 g ai/ha): 0
Plant response rating, Blackgrass ([7]; Preemergence, 31 g ai/ha): 0
Plant response rating ([7]; Preemergence, 125 g ai/ha): 0
Plant response rating ([7]; Preemergence, 250 g ai/ha): 0

O=C1NCC(c2ccc(C(F)(F)F)cc2)C1C(=O)Nc1ccccc1F (stereo not drawn) [Compound 231]
Plant response rating ([1]; 31 g ai/ha): 20
Plant response rating ([1]; 62 g ai/ha): 35
Plant response rating ([1]; 125 g ai/ha): 35
Plant response rating ([1]; 250 g ai/ha): 45
Plant response rating, Pigweed ([1]; 62 g ai/ha): 50
Plant response rating, Pigweed ([1]; 125 g ai/ha): 60
Plant response rating, Pigweed ([1]; 31 g ai/ha): 50
Plant response rating, Pigweed ([1]; 250 g ai/ha): 80
Plant response rating ([2]; Postemergence, 31 g ai/ha): 0
Plant response rating ([2]; Postemergence, 62 g ai/ha): 0
Plant response rating ([2]; Postemergence, 125 g ai/ha): 0
Plant response rating ([2]; Postemergence, 250 g ai/ha): 0
Plant response rating, Barley, Winter ([2]; Preemergence, 62 g ai/ha): 0
Plant response rating, Barley, Winter ([2]; Preemergence, 125 g ai/ha): 0
Plant response rating, Barley, Winter ([2]; Preemergence, 31 g ai/ha): 0
Plant response rating ([2]; Preemergence, 250 g ai/ha): 20
Plant response rating ([3]; Postemergence, 31 g ai/ha): 0
Plant response rating ([3]; Postemergence, 62 g ai/ha): 0
Plant response rating ([3]; Postemergence, 125 g ai/ha): 0
Plant response rating ([3]; Postemergence, 250 g ai/ha): 0
Plant response rating, Barley, Spring ([3]; Preemergence, 62 g ai/ha): 5
Plant response rating, Barley, Spring ([3]; Preemergence, 125 g ai/ha): 5
Plant response rating, Barley, Spring ([3]; Preemergence, 31 g ai/ha): 0
Plant response rating ([3]; Preemergence, 250 g ai/ha): 35
Plant response rating ([4]; Postemergence, 31 g ai/ha): 5
Plant response rating ([4]; Postemergence, 62 g ai/ha): 10
Plant response rating ([4]; Postemergence, 125 g ai/ha): 10
Plant response rating ([4]; Postemergence, 250 g ai/ha): 10
Plant response rating, Bluegrass ([4]; Preemergence, 62 g ai/ha): 0
Plant response rating, Bluegrass ([4]; Preemergence, 125 g ai/ha): 15
Plant response rating, Bluegrass ([4]; Preemergence, 31 g ai/ha): 5
Plant response rating ([4]; Preemergence, 250 g ai/ha): 25
Plant response rating ([5]; 31 g ai/ha): 0
Plant response rating ([5]; 62 g ai/ha): 0
Plant response rating ([5]; 125 g ai/ha): 0
Plant response rating ([5]; 250 g ai/ha): 0
Plant response rating, Wheat, Winter ([5]; 62 g ai/ha): 10
Plant response rating, Wheat, Winter ([5]; 125 g ai/ha): 15
Plant response rating, Wheat, Winter ([5]; 31 g ai/ha): 5
Plant response rating, Wheat, Winter ([5]; 250 g ai/ha): 25
Plant response rating ([6]; 31 g ai/ha): 0
Plant response rating ([6]; 62 g ai/ha): 0
Plant response rating ([6]; 125 g ai/ha): 0
Plant response rating ([6]; 250 g ai/ha): 0
Plant response rating, Wheat, Spring ([6]; 62 g ai/ha): 5
Plant response rating, Wheat, Spring ([6]; 125 g ai/ha): 0
Plant response rating, Wheat, Spring ([6]; 31 g ai/ha): 0
Plant response rating, Wheat, Spring ([6]; 250 g ai/ha): 20
Plant response rating ([7]; Postemergence, 31 g ai/ha): 0
Plant response rating ([7]; Postemergence, 62 g ai/ha): 10
Plant response rating ([7]; Postemergence, 125 g ai/ha): 10
Plant response rating ([7]; Postemergence, 250 g ai/ha): 20
Plant response rating, Blackgrass ([7]; Preemergence, 62 g ai/ha): 0
Plant response rating, Blackgrass ([7]; Preemergence, 125 g ai/ha): 15
Plant response rating, Blackgrass ([7]; Preemergence, 31 g ai/ha): 0
Plant response rating ([7]; Preemergence, 250 g ai/ha): 55
